Data on 14 compounds can be found in PubChem BioAssay (NCI).

Holding throughout (assay): DTP human tumour cell line panel, 48 h
Experiment [1] relates to SN12C renal.
Experiment [2] concerns HCC-2998 colon.
Experiment [3] deals with SF-268 CNS.
The test system of experiment [4] is LOX IMVI melanoma.
Experiment [5] relates to NCI-H226 lung.
In experiment [6] the test system is UACC-62 melanoma.
The test system of experiment [7] is CAKI-1 renal.
Experiment [8] relates to SNB-75 CNS.
Experiment [9] concerns TK-10 renal.
The test system of experiment [10] is NCI-H23 lung.
Experiment [11] has as its system SK-MEL-2 melanoma.
Experiment [12] has as its system DU-145 prostate.
Experiment [13] concerns MCF7 breast.
Experiment [14] deals with OVCAR-8 ovarian.
Experiment [15] concerns EKVX NSCLC.
Experiment [16] deals with CCRF-CEM leukemia.
In experiment [17] the test system is MDA-MB-231 breast.
In experiment [18] the test system is MDA-N.
Experiment [19] deals with SF-295 CNS.

Structures are written as SMILES.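 Exposure lasted 48 hours, with cells grown in 96-well plates and compounds tested at five concentrations. TGI marks complete inhibition of growth.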

The term TGI denotes the concentration giving total growth inhibition. Lower therefore signals more potent growth arrest. Regarding `O=C(C1OC1c1cccc([N+](=O)[O-])c1)C12CC3CC(CC(C3)C1)C2` (stereo not drawn), the concentration for total growth inhibition (TGI) in [1] came out at 13.2 µM; in experiment [2], 14.5 µM; in experiment [3], 9.18 µM; in experiment [4] it was 3.84 µM; in [5], 25.9 µM; in [6], 14.1 µM. Also, the total growth inhibition concentration (TGI) in [7] was found to be 24.5 µM; in [8], 20 µM; in [9], 32.7 µM; in experiment [10] it was 17.7 µM; in [11], 28.6 µM; in experiment [12], 26.8 µM. The TGI in experiment [13] came to 12.8 µM; in experiment [14], 5.92 µM; in experiment [15], 27 µM; in [16] it was 13.1 µM; in experiment [17], 17.5 µM; in [18], 11.9 µM. In experiment [19], this compound showed a total growth inhibition concentration (TGI) of 17.3 µM.

Consider `C=CC[C@]1(C2=NC(C)(C)CO2)c2ccccc2-c2ccccc2[C@H]1C(C)=O`, for which the TGI in experiment [1] stood at 30.8 µM; in [2], 20.7 µM; in [3], 29.3 µM; in experiment [4], 25.8 µM; in experiment [5], 30 µM; in experiment [6], 19.2 µM. Moreover, the concentration for total growth inhibition (TGI) in experiment [7] is > 55 µM; in experiment [8], 46.2 µM; in [9], 34.4 µM; in experiment [10], > 45.3 µM; in [11], 15.4 µM; in [12] it was 29.6 µM. In addition, the TGI in experiment [13] was 24.8 µM; in experiment [14] it was > 52.8 µM; in experiment [15] it was 40.6 µM; in [16] it was 37.2 µM; in experiment [17] it was 30 µM; in experiment [18], 8.45 µM. In experiment [19], the TGI stood at 19.1 µM.

As for `CCOC(=O)c1nc2cc(C(F)(F)F)ccc2nc1Oc1ccc(F)cc1`, the total growth inhibition concentration (TGI) in experiment [1], in experiment [2], in [3], in experiment [4], in experiment [5] and in experiment [6] was > 100 µM each time. The TGI in experiment [7], in [8], in [9], in experiment [11], in [12] and in [13] was > 100 µM throughout. Besides, the TGI in experiment [14], in experiment [15], in experiment [16], in experiment [17], in [18] and in [19] was > 100 µM each time.

As for `O=c1c2c3c(sc2nc2n1N=CN(c1ccc(F)cc1)C2)CCCC3`, the TGI in experiment [1], in [2], in [3], in experiment [4], in [5] and in [6] was > 100 µM in each case. Moreover, the concentration for total growth inhibition (TGI) in [7], in experiment [8], in [9], in experiment [10], in [11] and in experiment [12] was > 100 µM throughout. Moreover, the TGI in experiment [13], in [14], in experiment [15], in experiment [16], in experiment [17] and in [18] was > 100 µM in each case. In addition, in experiment [19], the TGI was > 100 µM.

On to `CCOC(=O)/C=C(/C(=O)OCC)n1ccc(=O)n(Cc2cnnn2CCCCOC(C)=O)c1=O`, for which the concentration for total growth inhibition (TGI) in experiment [1], in experiment [2], in [3], in experiment [4], in experiment [5] and in [6] was > 100 µM each time. In addition, the TGI was 76.3 µM in experiment [7]; > 100 µM in experiment [8]; > 100 µM in experiment [9]; > 100 µM in experiment [10]; > 100 µM in experiment [11]; > 100 µM in experiment [12]. In addition, the TGI in experiment [13] was > 100 µM; in experiment [14] it was > 100 µM; in experiment [15], > 100 µM; in [16], 30.9 µM; in experiment [17], > 100 µM; in experiment [18], > 100 µM. In addition, the TGI in experiment [19] is > 100 µM.

For `C/C(=N\NC(N)=S)c1sc(-n2nc(-c3ccccc3)cc2-c2ccccc2)nc1C`, the concentration for total growth inhibition (TGI) in experiment [1], in experiment [2], in [3], in experiment [4], in [5] and in experiment [6] was > 100 µM each time. Moreover, the concentration for total growth inhibition (TGI) in [7], in [8], in experiment [9], in experiment [10], in experiment [11] and in experiment [12] was > 100 µM in each case. The TGI in experiment [13], in [14], in experiment [15], in [16], in experiment [17] and in experiment [18] was > 100 µM in each case. Further, in [19], the total growth inhibition concentration (TGI) is > 100 µM.

Turning to `CC(=O)c1c(O)n(-c2ccc(C)cc2)c(=O)c2c(N)n[nH]c12`, the TGI in experiment [1], in [2], in experiment [3], in experiment [4], in [5] and in experiment [6] was > 100 µM throughout. The TGI in experiment [7], in [8], in experiment [9], in experiment [10], in [11] and in [12] was > 100 µM in each case. The concentration for total growth inhibition (TGI) in [13], in [14], in experiment [15], in experiment [16], in experiment [17] and in experiment [18] was > 100 µM in each case.

Regarding `Cc1cn(C2OC(CO)C(O)C2F)c(=O)[nH]c1=O` (stereo not drawn), the concentration for total growth inhibition (TGI) in experiment [1], in experiment [2], in experiment [3], in experiment [4], in experiment [5] and in experiment [6] was > 100 µM in each case. The TGI in experiment [7], in experiment [8], in experiment [9], in [10], in experiment [11] and in experiment [12] was > 100 µM in each case. Further, the TGI in experiment [13], in [14], in [15], in experiment [16], in experiment [17] and in experiment [18] was > 100 µM throughout. Further, the TGI in [19] was > 100 µM.

As for `CC(C)=C[C@@H]1O[C@H](O)[C@@H]([C@H]2CC[C@@]3(C)[C@@H]4CC[C@H]5C(C)(C)C(=O)CC[C@@]56C[C@@]46CC[C@]23C)[C@@H]1O`, the TGI in experiment [1] was 38.2 µM; in experiment [2] it was 33.3 µM; in [3] it was 39.4 µM; in experiment [5], 24.6 µM; in experiment [6], 35.5 µM; in experiment [7], 31 µM. Also, the TGI in [8] came to 32.5 µM; in [9], 30.1 µM; in experiment [10], 32.9 µM; in experiment [11], 42.2 µM; in experiment [12], 29.6 µM; in experiment [13], 25 µM. Besides, the concentration for total growth inhibition (TGI) worked out at 30.4 µM in experiment [14]; 33 µM in experiment [15]; 24.1 µM in experiment [16]; 37.1 µM in experiment [17]; 31.3 µM in experiment [18]; 31.9 µM in [19].

Take `CC(CC[C@@]1(O)OC2C[C@H]3[C@@H]4CC[C@H]5CC(OC6OC(CO)C(OC7OC(CO)C(O)C(OC8OCC(O)C(O)C8O)C7OC7OC(CO)C(O)C(O)C7O)C(O)C6O)[C@H](O)CC5(C)[C@H]4CCC3(C)C2[C@@H]1C)COC1OC(CO)C(O)C(O)C1O` (stereo partly drawn): the TGI in [1] is 19.6 µM; in experiment [2], 34.2 µM; in experiment [3], 9.32 µM; in experiment [4], 48.8 µM; in experiment [5] it was 28.8 µM; in [6] it was 45.6 µM. Moreover, the total growth inhibition concentration (TGI) was 43.8 µM in experiment [7]; 9.19 µM in experiment [8]; 16.6 µM in [9]; 15.9 µM in experiment [10]; 31.6 µM in experiment [11]; 10.3 µM in experiment [12]. In addition, the concentration for total growth inhibition (TGI) in experiment [13] is > 50 µM; in experiment [14] it was > 50 µM; in experiment [15] it was 8.9 µM; in experiment [16] it was > 50 µM; in experiment [17], > 50 µM; in experiment [18], > 50 µM. Also, the total growth inhibition concentration (TGI) in experiment [19] is 45.2 µM.

`Cc1cc2nnc(C(N)=O)c(N)c2cc1C`: the TGI in experiment [1], in [2], in experiment [3], in [4], in [5] and in [6] was > 100 µM in each case. In addition, the TGI was > 100 µM in [7]; 39.6 µM in [8]; > 100 µM in experiment [9]; > 100 µM in experiment [10]; > 100 µM in experiment [11]; > 100 µM in experiment [12]. Besides, the TGI in experiment [13], in [14], in experiment [15], in [16], in experiment [17] and in experiment [18] was > 100 µM each time. The TGI in experiment [19] was > 100 µM.

As to `C#CC(O)/C=C/C(O)CCCC(O)CC#CC(O)C#CCCCCC(O)/C=C/CCCC(O)/C=C/CCCCCCCCCCCCCC(O)C(O)C#CC(=O)O` (stereo not drawn), the TGI in experiment [1], in experiment [2], in [3], in experiment [4], in experiment [5] and in experiment [6] was > 25 µM each time. Further, the total growth inhibition concentration (TGI) in experiment [7], in experiment [8], in [9], in [10], in experiment [11] and in experiment [12] was > 25 µM in each case. Also, the TGI in [13], in [14], in experiment [15], in experiment [16], in experiment [17] and in experiment [18] was > 25 µM each time. In experiment [19], the TGI was > 25 µM.

Take `N#Cc1c(-c2ccccc2)cc(Nc2ccc(Cl)cc2)n2c1nc1ccccc12`: the concentration for total growth inhibition (TGI) in [1] was > 32.2 µM; in [2] it was > 100 µM; in experiment [3] it was > 100 µM; in experiment [4] it was > 100 µM; in experiment [5], > 100 µM; in experiment [6], > 100 µM. Besides, the concentration for total growth inhibition (TGI) in experiment [7] was > 30.7 µM; in experiment [8] it was > 31.1 µM; in [9] it was > 100 µM; in experiment [10], > 100 µM; in [11], > 83.6 µM; in experiment [12], > 100 µM. Also, the TGI in experiment [13] is > 76.3 µM; in [14], > 57 µM; in experiment [15], > 46.7 µM; in experiment [16], > 94.7 µM; in [17] it was > 47.4 µM; in [18], > 41.6 µM. Also, the TGI in experiment [19] was > 33.3 µM.

In the case of `O=P1(Cc2ccccc2)c2ccccc2-c2ccccc21`, the concentration for total growth inhibition (TGI) is > 78.8 µM in experiment [1]; 16.7 µM in experiment [2]; > 100 µM in experiment [3]; 23.1 µM in [4]; 31.2 µM in experiment [5]; 13.7 µM in [6]. Also, the TGI is 50.4 µM in [7]; > 50.7 µM in experiment [8]; 36 µM in experiment [9]; 22.1 µM in experiment [10]; 7.49 µM in experiment [11]; > 100 µM in experiment [12]. The TGI was > 39.3 µM in [13]; 36.7 µM in experiment [14]; > 73.1 µM in experiment [15]; > 100 µM in experiment [16]; > 79.4 µM in [17]; 10.9 µM in experiment [18]. The compound also had a TGI in experiment [19] of 40.5 µM.
